Measurements reported in patent publication US20130336940A1, “MODIFIED PIG ISLETS FOR DIABETES TREATMENT” (UNIVERSITE CATHOLIQUE DE LOUVAIN, priority 2011, published 2013).

Assays:
pig pancreas = experiment: Pancreatic hormonal content for insulin/glucagon (RIA) after STZ; type: in vivo
Experimental: Five doses (0, 30, 50, 75, 100 mg/kg) of filter-sterilized Streptozotocin (STZ) (Sigma, Bornem, Belgium) were tested. STZ was solubilised in citrate buffer (25% v/v Na citrate, 23% v/v citric acid, 52% v/v H2O, pH 4.5) and filtered before injection in the external jugular vein (Dufrane, Transplantation, 2006).
For pancreatic hormonal content, insulin and glucagon were first extracted from small biopsies of pancreas taken in the 3 zones (head, body, tail) before being quantified by radio immuno assay (RIA).
For the extraction, ˜1 g of pancreas was cut into small fragments (˜1-2 mm^3) and 5 mL of a solution composed of 75.75% CH3CH2OH, 24.22% H2O, 0.03% HCl were added. The following steps were performed with the samples kept on ice. Samples were mixed (Ultra-Turrax T25 [Janke & Kunkel IKA—Labortechnik, Staufen, Germany]) for 20 seconds 4 times and 5 mL of a solution of 75% CH3CH2OH, 22% H2O, 3% HCl were added to the mixture. The samples were then sonicated 4×20 seconds (Sonifier B 12 [Branson Sonic Power Company, Danbury, Conn., USA]) and centrifugated 10 minutes at 4° C. at 1500 rpm. The first supernatant formed was removed and kept at −20° C. 2 mL of a solution of 75% CH3CH2OH, 23.5% H2O, 1.5% HCl were added to the precipitate and a second step of sonication was performed. The samples were then kept at −20° C. overnight. After a step of centrifugation 10 minutes at 4° C. at 1500 rpm, the second supernatant was removed and kept at −20° C. Thereafter, 2 mL of a solution of 75% CH3CH2OH, 23.5% H2O, 1.5% HCl were added to the precipitate and the mixture was sonicated and centrifuged 10 minutes at 4° C. at 1500 rpm and the third supernatant removed. The three supernatants were then pooled and constituted the pancreas extract. […] The supernatants were immediately removed and the contents of insulin and glucagon were determined by a Wallac Wizard 1470 Automatic gamma counter (GMI Inc, Ramsey, Minn., USA) for 1 minute.

isolated pig islets = experiment: Islet structure after isolation (histology of isolated islets from STZ-treated pigs); type: in vivo; details: for proportion of beta-cells in islets: mean±SD, native 91.47±1.19
Experimental: (ii) Young pig islets treated with selected doses of STZ (0, 30, 50 mg/kg) were isolated following a method previously described by Dufrane et al, Xenotransplantation, 2006. Briefly, after being completely dissected, the pancreas were digested by a modified static digestion method: infusion of the pancreas with Liberase DL Research Grade (Roche/Boehringer Mannheim, Brussels, Belgium; 0.43 mg/mL) dissolved in modified UW solution; placement in a sterile 1 L Nalgene jar for digestion by static incubation at 37° C. for 30-50 minutes; filtration in a 500 μm filter; purification in a ficoll grade (densities 1.090, 1.060 and 1.010) (Mediatech Cellgro); washing and suspension of the islets in Ham-F10 (Gibco)+10% New Born Calf Serum (NCS; Merck-Eurolab, Overijse, Belgium).
The cellular composition of human and pig isolated islets was determined by immunohistochemistry. After overnight fixation in formol at room temperature, aliquots of islet preparations were embedded in paraffin and cut in 5 μm sections. Insulin and glucagon staining were performed as described above.
Alpha and β cells proportion and localization (for pig and human) inside islets were compared in isolated islets from 0, 30 and 50 mg/kg STZ pigs in 3 groups of 5 islets (50-99, 100-149 and 150-200 μm).

[1] = STZ 30 mg/kg, isolated islets of 50-150 μm
[2] = STZ 50 mg/kg, isolated islets of 50-150 μm
[3] = STZ 50 mg/kg, isolated islets of each size

With `CN(N=O)C(=O)N[C@H]1C(O)O[C@H](CO)[C@@H](O)[C@@H]1O` (mixture of isomers) [STZ, Streptozotocin] the “theoretical reduction of the pancreatic insulin content” value (pig pancreas; STZ 30 mg/kg, by linear regression) was 30%, the “pancreatic glucagon content, humans vs treated pigs” value (pig pancreas; STZ 30/50/75 mg/kg, 3 months post-STZ treatment) was “higher in humans” and the pancreatic insulin content (pig pancreas; STZ 75-100 mg/kg) was “significant reduction”. The “number of alpha cells per islet in comparison to humans” value (isolated pig islets; [1]) was “higher number of alpha cells”, the “proportion of beta-cells in islets” value (isolated pig islets; [1]) was 60.46±3.70 and the “proportion of alpha cells per islet in comparison to humans” value (isolated pig islets; STZ 30 mg/kg, isolated islets of 100-150 μm) was “higher proportion of alpha cells”. The “number of beta cells per islet in comparison to humans” value (isolated pig islets; STZ 30 mg/kg, isolated islets of 100-200 μm) was “higher number of beta cells”, the “number of beta cells in comparison to humans” value (isolated pig islets; [2]) was “higher” and the “proportion of beta-cells in islets” value (isolated pig islets; [2]) was 60.46±4.55. The “alpha cell proportion in comparison to humans” value (isolated pig islets; [3]) was “higher alpha cell proportion”, the “number of alpha cells per islet in comparison to humans” value (isolated pig islets; [3]) was “higher number of alpha cells” and the “number of beta cells in comparison to humans” value (isolated pig islets; STZ 50 mg/kg, large isolated islets (150-200 μm)) was “similar”. For the same molecule, the “decrease of β-cells (proportion)” value (isolated pig islets; STZ 30-50 mg/kg) was 30%, the “increase of α-cells” value (isolated pig islets; STZ 30-50 mg/kg) was ~300% and the “α-cells in remodeled pig islet” value (isolated pig islets; STZ 30-50 mg/kg) was 30%. The “β-cells in remodeled pig islet” value (isolated pig islets; STZ 30-50 mg/kg) was 60%.
